The values that follow are results of earlier work, collected in paper PMC11839646, “HPK1 kinase inhibitor: a sufficient approach to target HPK1 to modulate T cell activation in cancer immunotherapy compared with degraders” (Frontiers in Immunology, 2025).

Each structure is given as a SMILES string.

The test system of this data set is HPK1. Further details: method as in PMID 32860752, PMID 39446986, PMID 39568237. Conditions: preclinical; cited from earlier work.

As for `CC(C)(O)C#Cc1cccc(COc2cc(-c3cnc(C4CCN(C(=O)CCOCCOCCOCCOCCOc5cccc6c5C(=O)N(C5CCC(=O)NC5=O)C6=O)CC4)s3)cnc2N)c1` (stereo not shown) [SS47], the “Tumor suppression compared to the corresponding warhead” value is recorded as “greater tumor suppression”.
